The results in this text go back to patent US20180057505A1, “BICYCLIC HETEROARYL COMPOUNDS USEFUL AS INHIBITORS OF THE PAR-2 SIGNALING PATHWAY” (VERTEX PHARMACEUTICALS INCORPORATED, priority 2015, published 2018).

Common to all, as to format: cell-based
The test system of experiment [1] is Thrombin-stimulated Ca2+ response in HT-29 cells. Description: Ca FLIPR TETRA assay, ANTAGONIST mode, activator 1 U/mL Thrombin. Particulars: for IC50: Homo sapiens, HT-29 cells, activator 1 U/mL Thrombin. The method, then:
(§1) Protocol for Testing PAR2 Compounds in ANTAGONIST Mode Using the Ca FLIPR^TETRA Assay (384 Well).
(§2) 23000 HT-29 cells (ATCC# HTB-38) were plated in 384-well black, transparent-flat bottom plates and incubated in 25 uL of 1% FBS/McCoy's media ON at 37° C. under an atmosphere of 5% CO2. The following day, 25 uL FLIPR calcium 5 Molecular Devices assay reagent (Cat: R-8186) was added. Plates were incubated at 37° C. and r. t. for 45 min and 15 min, respectively. Compounds dilutions were prepared in 100% DMSO using a Biomek FX and diluted 20-fold in HBSS and then 5.5 uL was added directly to the cells by the FLIPR^TETRA (10× dilution) using FLIPR Tetra Pipette tips, black, non-sterile, 384 Molecular Devices (Cat: 9000-0764).
(§3) A first read was performed to determine whether the test compounds on their own can activate Ca^2+ responses. The cells were incubated with the compounds for 30 min at r. t. and then read in ANTAGONIST mode in the same plate by stimulating with 6.2 uL of a fixed concentration of the activator: final concentrations 8 μM SLIGKV, 1 U/mL Thrombin, 3.1 U/mL trypsin, or 0.6 μM UTP.

For experiment [2], the target named is T1, PAR2 (HT-29 cells) (Homo sapiens, UniProt P55085).
T1 construct: host or cells: HT-29
T1 sequence (P55085 26-397): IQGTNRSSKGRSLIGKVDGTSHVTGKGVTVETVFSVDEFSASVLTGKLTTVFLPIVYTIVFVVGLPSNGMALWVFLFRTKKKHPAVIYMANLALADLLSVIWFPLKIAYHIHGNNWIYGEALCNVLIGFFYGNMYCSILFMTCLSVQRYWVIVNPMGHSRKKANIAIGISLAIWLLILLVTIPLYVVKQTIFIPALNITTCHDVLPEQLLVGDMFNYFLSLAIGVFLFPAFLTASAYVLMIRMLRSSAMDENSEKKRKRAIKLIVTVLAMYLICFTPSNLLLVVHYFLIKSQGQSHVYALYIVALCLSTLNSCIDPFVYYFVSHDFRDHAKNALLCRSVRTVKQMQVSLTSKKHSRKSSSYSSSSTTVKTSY
Description: Ca FLIPR TETRA assay, ANTAGONIST mode, activator 3.1 U/mL trypsin. Particulars: HT-29 cells, activator 3.1 U/mL trypsin. On the procedure:
as §1, §2, §3

Experiment [3] deals with T1, PAR2 (HT-29 cells). Nature of the experiment: Ca FLIPR TETRA assay, ANTAGONIST mode, activator 8 μM SLIGKV. Conditions: HT-29 cells, activator 8 μM SLIGKV. The method, then: as §1, §2, §3
For experiment [4], the system named is UTP-stimulated Ca2+ response in HT-29 cells. Description: Ca FLIPR TETRA assay, ANTAGONIST mode, activator 0.6 μM UTP. Particulars: Homo sapiens; for IC50: HT-29 cells, activator 0.6 μM UTP; for inhibition at 50 µM: HT-29. The method, then:
as §1, §2, §3

Setting [5] is: maximal antagonist concentration per Method (A: 0.1, 1 or 2 μM; B: 50 μM).
Setting [6] is: Method A: maximal concentration of antagonist 0.1, 1 or 2 μM.

The term IC50 denotes the concentration at which inhibition is half-maximal. Consider `CC(C)c1cc(-c2ccc(F)cc2)nc2cc(C(=O)N3CCN(C(=O)C(O)C(C)C)CC3(C)C)oc12` (stereo not shown) [Example I-12], for which the IC50 was determined as 8700 nM in experiment [1], 8.6 nM in experiment [2] (setting [5]), 8.3 nM in experiment [3] (setting [5]) and 5800 nM in experiment [4].
In the case of `CC(C)c1cc(-c2ccc(F)cc2)nc2cc(C(=O)N3CCN(C(=O)c4ccno4)CC3(C)C)oc12` [Example I-13], the concentration for half-maximal inhibition (IC50) in experiment [1] stood at 1000 nM; in experiment [2] (setting [5]), 4.5 nM; in experiment [3] (setting [5]), 3 nM; in experiment [4], 1200 nM.
Broadly, the inhibition is the drop in the measured response relative to a control, in per cent. As for `CC(C)c1cc(-c2ccc(F)cc2)nc2cc(C(=O)N3CCN(C(=O)C(C)(C)C)CC3(C)C)oc12` [Example I-14], in experiment [1] (@ 50 (μM)), the “Thrombin, % @ 50” value is on record as 57% @ 50. Besides, the IC50 in experiment [2] (setting [5]) was found to be 3 nM; in experiment [3] (setting [5]), 2.8 nM. For the same molecule, the inhibition at 50 µM in experiment [4] came out at 59%.
`CC(C)c1cc(-c2ccc(F)cc2)nc2cc(C(=O)N3CCN(C(=O)[C@H](C)O)CC3(C)C)oc12` [Example I-15]: the IC50 in experiment [1] amounted to 14000 nM; in experiment [2] (setting [5]) it was 190 nM; in experiment [3] (setting [5]) it was 230 nM; in experiment [4] it was 14000 nM.
As for `CC(C)c1cc(-c2ccc(F)cc2)nc2cc(C(=O)N3CCN(C(=O)C(C)(C)F)CC3(C)C)oc12` [Example I-16], the IC50 in experiment [1] was 6900 nM; in experiment [2] (setting [5]), 6.8 nM; in experiment [3] (setting [5]) it was 7.2 nM. Moreover, the inhibition at 50 µM in experiment [4] turned out to be 61%.
For the molecule `COCC(=O)N1CCN(C(=O)c2cc3nc(-c4ccc(F)cc4)cc(C(C)C)c3o2)C(C)(C)C1` [Example I-17], the IC50 in experiment [1] was 14000 nM; in experiment [2] (setting [5]) it was 67 nM; in experiment [3] (setting [5]), 59 nM; in experiment [4] it was 15000 nM.
`CC(C)c1cc(-c2ccc(F)cc2)nc2cc(C(=O)N3CCN(C(=O)[C@H](O)CC(C)(C)C)CC3(C)C)oc12` [Example I-18]: the half-maximal inhibitory concentration (IC50) in experiment [1] came to 7900 nM; in experiment [2] (setting [5]) it was 1.1 nM; in experiment [3] (setting [5]), 1.4 nM; in experiment [4], 17000 nM.
The corresponding values for `CC(C)c1cc(-c2ccc(F)cc2)nc2cc(C(=O)N3CCN(C(=O)C4(C)CC4)CC3(C)C)oc12` [Example I-19] are 10000 nM, 4.4 nM, 5.6 nM and 5700 nM.
Take `CC#CC(=O)N1CCN(C(=O)c2cc3nc(-c4ccc(F)cc4)cc(C(C)C)c3o2)C(C)(C)C1` [Example I-20]: the IC50 in experiment [1] is 7100 nM; in experiment [2] (setting [5]) it was 10 nM; in experiment [3] (setting [5]) it was 11 nM; in experiment [4], 1500 nM.
As to `CC(C)c1cc(-c2ccc(F)cc2)nc2cc(C(=O)N3CCN(C(=O)CC(C)(C)C)CC3(C)C)oc12` [Example I-21], the figures for the IC50 in experiment [1], in experiment [2] (setting [5]) and in experiment [3] (setting [5]) were > 50000 nM, 2.6 nM and 1.4 nM, respectively. The inhibition at 50 µM in experiment [4] came to 59%.
On the same counts, the results for `CC(C)c1cc(-c2ccc(F)cc2)nc2cc(C(=O)N3CCN(C(=O)C4CC4(C)C)CC3(C)C)oc12` (stereo not shown) [Example I-22] are > 50000 nM, 2 nM, 2.4 nM and 64%.
Turning to `CC(C)(C)c1cc(-c2ccc(Cl)cc2)nc2cc(C(=O)N3CCNC(=O)C3(C)C)oc12` [Example I-157], the values for the IC50 in experiment [2] (setting [5]) and in experiment [3] (setting [5]) were 7.9 nM and 9.2 nM, respectively.
On the same counts, the results for `CC(C)(C)c1cc(-c2ccc(Cl)c(F)c2)nc2cc(C(=O)N3CCNC(=O)C3(C)C)oc12` [Example I-176] are 5 nM and 4.8 nM.
On the same counts, the results for `CC(C)(C)c1cc(-c2ccc(Cl)c(F)c2)nc2cc(C(=O)N3CCN(c4nc(C(=O)O)co4)CC3(C)C)oc12` [Example I-290] are 6.1 nM and 3.2 nM.
On to `CC(C)(C)c1cc(-c2ccc(Cl)cc2)nc2cc(C(=O)N3CCN(c4cnccn4)CC3(C)C)oc12` [Example I-368], for which the IC50 stood at 9.5 nM in experiment [2] (setting [6]) and 12 nM in experiment [3] (setting [6]).
